Data on seven molecules can be found in publication PMC6383948, “Evaluation of a class of isatinoids identified from a high-throughput screen of human kinase inhibitors as anti-Sleeping Sickness agents” (PLoS Neglected Tropical Diseases, 2019).

As usually defined, the logD is the decadic logarithm of the distribution of all forms, ionised or not, between an organic phase and buffer at a given pH. Read a high logD as higher lipophilicity. In general, solubility refers to the dissolved amount per volume that the medium holds.

Like-named read-outs stand apart in the source and are kept apart here.

Data set [1] can be described thus: Human liver microsomal CLint. In kind it is in vitro ADME. Conditions: for microsomal CLint: read-out: HLM Clint. The method, then:
In vitro intrinsic clearance determined from human liver microsomes using a standard approach. Following incubation and preparation, the samples are analyzed using LC/MS/MS.
(In general: Microsomes from liver hold many membrane-bound enzymes, among them those of drug oxidation.)

Data set [2] in a line: Human plasma protein binding (equilibrium dialysis). In kind it is in vitro ADME. The settings on record: for fraction unbound at 10 µM: pH 7.4, read-out: PPB (converted). The method, then: PPB is determined using equilibrium dialysis (RED device) to separate free from bound compound. The amount of compound in plasma (10 µM initial concentration) and in dialysis buffer (pH 7.4 phosphate buffer) is measured by LC-MS/MS after equilibration at 37 °C in a dialysis chamber. The fraction unbound (fu) is reported.

Data set [3] concerns T. b. brucei. Description: T. b. brucei growth inhibition EC50 assay (resazurin, 72 h). It counts as cell-based, Trypanosoma brucei brucei Lister 427. The settings on record: for EC50: Trypanosoma brucei, read-out: T.b.b. pEC50 (converted). Here is the method: Mid-log phase growth T. b. brucei was diluted to a working cell density of 2,750 cells/mL and 90 μL/well dispensed into 96-well flat-bottom transparent assay plates (Nunc). Ten μL/well from intermediate plates were added. The final top concentration of compounds was 40 μM in 0.4% DMSO per well.
Assay plates were incubated for 72 h at 37°C and 5% CO2. Four hours prior to the end of the incubation, 20 μL of a 440 μM resazurin solution in prewarmed HMI-9 was added to each well and incubated for another 4 h. Fluorescence was then measured in an Infinite F200 plate reader (Tecan) at 550 nm (excitation filter) and 590 nm (emission filter). A 4-parameter equation was employed to fit the dose-response curves and determine of EC50 using the SigmaPlot 13.0 software. Assays were performed in duplicate at least twice, to achieve a minimal n = 3 per dose response.
Bloodstream Trypanosoma brucei brucei Lister 427 was cultured in Hirumi’s modified Iscove’s medium (HMI-9), supplemented with 10% heat-inactivated FBS, at 37 °C and 5% CO2 in T-25 vented flask (Corning®).
For dose-response experiments, compound plates were prepared for each analogue by serial 3-fold dilutions in 100% DMSO. Five concentration points (mammalian cytotoxicity) or ten concentration points (parasite growth inhibition), were made in 96-well transparent Nunclon plates. Pentamidine is routinely included in compound plates as internal quality control, and plates are stored sealed at -20 °C for no more than four weeks.
Background: Alamar Blue is a resazurin reagent that responds to reducing activity.

A further data set has as its system T. cruzi. Put plainly: β-D-Galactosidase transgenic T. cruzi assay (amastigote-infected L6 cells). It counts as cell-based, T. cruzi Tulahuen C4 strain. Conditions: 96 h; for EC50: Trypanosoma cruzi, read-out: T. cruzi pEC50 (converted). Here is the method:
The T. cruzi Tulahuen C4 strain, expressing the β-galactosidase gene (LacZ) and L6 rat skeletal muscle cells, used as host cells, were cultured in RPMI-1640 supplemented with 10% iFBS, 2 mM L-glutamine, 100 U/mL penicillin, and 100 μg/mL streptomycin at 37 °C and 5% CO2.
A Thermo Scientific Multidrop Combi dispenser (MTX Lab Systems, Vienna, VA) was used to dispense 90 μL of T. cruzi amastigote–infected L6 cell culture (4×10^3 infected L6 cells per well) into 96-well Corning assay plates (Corning Inc., Corning, NY) already containing 10 μL of the compounds to be screened and controls. The plates were incubated at 37 °C for 96 h. Then, 30 μL of 100 μM CPRG and 0.1% NP40 diluted in PBS were added to each well, and the plates were incubated for 4 h at 37 °C in the dark. Absorbance at 585 nm was measured in a Vmax kinetic microplate reader ([…]). Compound activities were normalized using the in-plate negative (benznidazole at 10 μg/mL) and positive (0.2% DMSO) growth controls.

Data set [4] can be described thus: Shake-flask octanol-water Log D7.4. Conditions: pH 7.4, octanol-water shake-flask. It counts as physicochemical. The method, then:
Shake-flask octanol-water distribution coefficient at pH 7.4 (Log D7.4). The aqueous solution used is 10 mM sodium phosphate pH 7.4 buffer. The method has been validated for Log D7.4 ranging from -2 to 5.0.

Another data set has as its system L. donovani. Put plainly: EC50 in L. donovani (infected THP-1 macrophages, luciferase). In kind it is cell-based, Leishmania donovani MHOM/ET/67/HU3. Conditions: 72 h; for EC50: Leishmania donovani, read-out: L. donovani pEC50 (converted). Here is the method: Leishmania donovani MHOM/ET/67/HU3 cells with the luciferase gene integrated into the parasite genome[1] were grown at 28 °C in RPMI 1640-modified medium (Invitrogen) supplemented with 20% FBS with […] of hygromycin B.
The Human myelomonocytic cell line THP-1 was grown at 37 °C and 5% CO2 in RPMI-1640 supplemented with 10% iFBS, 2 mM […], 100 U/mL penicillin and […] streptomycin. 3 x 10^4 THP-1 cells per well in 96-well plates were differentiated to macrophages with 20 ng/mL of PMA treatment for 48 h followed by 24 h of culture in fresh medium.
Macrophage-differentiated THP-1 cells were infected at a macrophage/parasite ratio of 1/10 with stationary L. donovani promastigotes for 24 h at 35 °C and 5% CO2, and extracellular parasites were removed by washing with PBS. Infected cell cultures were then incubated with different compounds concentrations at 37 °C for 72 h. Luminescence was measured using the Promega kit luciferase assay system (Promega, Madison, WI). Assays were performed in duplicate at least twice, to achieve a minimal n=3 per dose response.

The nature of data set [5]: Aqueous pH 7.4 solubility. Conditions: aqueous buffer, thermodynamic from solid; pH 7.4 phosphate buffer, 25 °C, 20-24 h; read-out: Aq. Solubility. In kind it is physicochemical. The method, then:
Compounds are dried down from 10 mM DMSO solutions using centrifugal evaporation technique. Phosphate buffer (0.1 M pH 7.4) added and StirStix inserted in the glass vials, shaking is then performed at a constant temperature of 25 °C for 20-24 h. This step is followed by double centrifugation with a tip wash in between, to ensure that no residues of the dried compound are interfering. The solutions are diluted before analysis and quantification using LC/MS/MS is performed.

In data set [6] the test system is MRC5-SV2 cell line. Put plainly: Cytotoxicity assay in MRC5 (resazurin, 48 h). In kind it is cell-based, human. The settings on record: MRC5 toxicity. The method, then:
For dose-response experiments, compound plates were prepared for each analogue by serial 3-fold dilutions in 100% DMSO. Five concentration points (mammalian cytotoxicity) or ten concentration points (parasite growth inhibition), were made in 96-well transparent Nunclon plates. Pentamidine is routinely included in compound plates as internal quality control, and plates are stored sealed at -20 °C for no more than four weeks. Intermediate plates were made as described, adding 95 μL of DMEM complete media to 5 μL of compound per well setting a 5% DMSO amount. Log-phase MRC5 cells were removed from a T-75 TC flask using TrypLE® Express (Thermo®) and dispersed by gentle pipetting. Cell density was adjusted to working concentration in prewarmed DMEM medium: 25,000 cells in 90 μL of culture were plated in 96-well transparent Nunclon plates and let to settle for 24 h at 37 °C and 5% CO2. After settling incubation, 10 μL of fresh made intermediate plate were added per well: final maximal concentration for compounds was 50 μM in 0.5% DMSO per well. […] Fluorescence was read in an Infinite F200 plate reader (Tecan®) at 550 nm (excitation filter) and 590 nm (emission filter). A 4-parameter equation was used to fit the dose-response curves and determination of EC50 by SigmaPlot ® 13.0 software. Assays were performed in duplicate at least twice for positive compounds, to achieve a minimal n=3 per dose response.

For data set [7], the system named is T. b. brucei. Conditions: cited from earlier work; for T.b.b. pEC50: data from original HTS, ref [13].
Details of data set [8]: method as in PMID 25340575. Conditions: data from original HTS; ref [13]; cited from earlier work.
The next data set in a line: Rat hepatocyte CLint. It counts as in vitro ADME. Conditions: rat hepatocytes. The method, then: In vitro intrinsic clearance determined from rat hepatocytes using a standard approach. Following incubation and preparation, the samples are analyzed using LC/MS/MS.
The test system of data set [9] is MRC5-SV2 cell line. The settings on record: printed in Fig 4; ref [16]; cited from earlier work.
The subject of data set [10] is S. mansoni adults and somules. Description: S. mansoni phenotypic assay, adults and somules (severity score). In kind it is cell-based, Schistosoma mansoni (NMRI isolate). The settings on record: for Adult severity score (10 μM): adults; for Adult severity score (10 μM) / Somule severity score (10 μM): score 0-4; for Somule severity score (10 μM): somules. The method, then:
Maintenance of the Schistosoma mansoni life cycle, preparation of somules (post-infective larvae) and adult worms (≥42-days-old), and co-incubation of these stages with test compounds were as described. An NMRI isolate of S. mansoni was used for all whole-organism screens.
Somules (40 units/well/96w round-bottomed plate) or adults (five paris/well/24w plate) were cultured in the presence of compounds at 10 µM and phenotypic changes observed as a function of time using an Zeiss Axiovert A1 inverted microscope (Table S4). A constrained nomenclature was used to describe the effects of compounds on parasites (changes in shape, motility and density). To generate a partially quantitative output for comparing drug effects, each descriptor was awarded a score of 1 and these were summed to a maximum score of 4 [7-10]: evidence of degeneracy or death was awarded the maximum score of 4. For adults specifically, damage to the tegument (outer surface) was also awarded a score of 4 based on the indication that damage to the patrasite’s surface is lethal in vivo [11]. Assays were performed twice and representative data are shown.

Where [11] appears, read: 72 h, resazurin, error within ±0.20 (Table 2) or ±0.08 (Table 3) log units.

Consider `NS(=O)(=O)c1ccc(N/N=C2\C(=O)Nc3ccccc32)cc1` [NEU-2115, (Z)-4-(2-(2-Oxoindolin-3-ylidene)hydrazinyl)benzenesulfonamide], for which the microsomal CLint in [1] (human, liver microsomes) stood at 20.4 µL/min/mg. The fraction unbound at 10 µM in [2] is 0.04. Besides, the EC50 with T. b. brucei [3] (setting [11]) is 1.26 µM; with T. cruzi it was greater than 10 µM; in the data set on L. donovani it was greater than 10 µM. For the same molecule, the logD in data set [4] amounted to 2.3. Further, the solubility in [5] was less than 8 µM. For the same molecule, the “MRC5 pTC50” value in the data set with MRC5-SV2 cell line [6] is given as less than 4.3.

For `NS(=O)(=O)c1ccc(N/N=C2\C(=O)Nc3ccc4ncccc4c32)cc1` [NEU-1184], the “T.b.b. pEC50” value in the data set on T. b. brucei [7] was 7.1. In addition, the Kinetic aq. solubility in data set [8] is 7.7 µM.

As for “(Z)-3-(2-(4-((Piperidin-1-ylmethyl)sulfonyl)phenyl)hydrazineylidene)indolin-2-one [NEU-4893]”, the “HLM Clint” value in [1] (human liver microsomes) is reported as less than 3 µL/min/mg. Further, the PPB in data set [2] (10 µM) is given as 90%. The “activity against T. brucei” value with T. b. brucei [3] was “inactive”. Besides, the “T.b.b. pEC50” value with T. b. brucei [3] (setting [11]) turned out to be 5.0. In addition, the “T. cruzi pEC50” value with T. cruzi is given as less than 4.70. Further, the “LogD (7.4)” value in [4] came to 2.2. Further, the “L. donovani pEC50” value on L. donovani is less than 5.30. Also, the “MRC5 pTC50” value in the data set with MRC5-SV2 cell line [6] is listed as less than 4.3. For the same molecule, the “Rat Hepatocyte Clint” value in “Rat hepatocyte CLint” is listed as 148 µL/min/10^6 cells.

Regarding `CCS(=O)(=O)Nc1ccc2c(c1)/C(=C(/Nc1ccc(CN3CCCCC3)cc1)c1ccccc1)C(=O)N2` [Hesperadin, reference compound], in the data set with T. b. brucei [7] (printed in Fig 4, ref [16]), the “T.b.brucei pEC50” value was 7.22. Moreover, the “MRC5 pTC50” value in the data set with MRC5-SV2 cell line [9] is reported as 6.69.

Turning to `CC(C)=Cc1cccc2c1C(=NNc1ccc(S(N)(=O)=O)cc1)C(=O)N2` [NEU-1183], in the data set on T. b. brucei [7], the “T.b.b. pEC50” value is reported as 7.6. For the same molecule, the Kinetic aq. solubility in data set [8] is less than 5 µM. In addition, the EC50 was 0.724 µM with T. cruzi and greater than 5.01 µM with L. donovani. In addition, the “activity against S. mansoni adults and/or somules” value in data set [10] (10 μM) was “moderate and variable activity”. Moreover, the “Adult severity score (10 μM)” value in data set [10] (3h), in data set [10] (6h), in data set [10] (24h) and in data set [10] (48h) was 2 each time. Moreover, the entries for the “Somule severity score (10 μM)” value in [10] (24h) and in [10] (48h) were 1 and 4, respectively.

With `NS(=O)(=O)c1ccc(N/N=C2\C(=O)Nc3ccc(-c4cnco4)cc32)cc1` [NEU-1185], the “T.b.b. pEC50” value in the data set with T. b. brucei [7] is on record as 6.4. In data set [8], the Kinetic aq. solubility was 18 µM.

In the case of `O=C1Nc2ccccc2C1=NNc1ccccc1` [NEU-2116, (Z)-3-(2-Phenylhydrazono)indolin-2-one], the microsomal CLint in [1] (human liver microsomes) was determined as 184 µL/min/mg. In addition, in [2], the fraction unbound at 10 µM is less than 0.02. For the same molecule, the EC50 with T. b. brucei [3] (72 h) was 12.6 µM; in the data set with T. cruzi, greater than 10 µM; with L. donovani, greater than 10 µM. The same molecule came in with a logD in data set [4] greater than 3.8. Besides, the solubility in data set [5] was less than 2 µM. The “Adult severity score (10 μM)” value turned out to be 0 in [10] (3h), 0 in data set [10] (6h), 0 in [10] (24h) and 1 in data set [10] (48h). In addition, the “Somule severity score (10 μM)” value in data set [10] (24h) and in [10] (48h) was 0 in each case. Besides, the “MRC5 pTC50” value in the data set on MRC5-SV2 cell line [6] is less than 4.3.
